# Legend:
# purified NLRP6 = assay: ELISA, binding of HRP-conjugated peptide to purified NLRP6; conditions: HRP-conjugated peptide on NLRP6, 1 h, absorbance 450 nm
# Procedure: (§1) DNA encoding full-length NLRP6 was codon optimized and chemically synthesized by Genewiz (Soochow, China). The DNA sequence was subcloned into NdeI-XhoI sites of a pDB-His-MBP vector (kindly given by Pro. Chenggui Han, China Agricultural University, Beijing, China). Recombinant NLRP6 protein was expressed and purified following previous reports, with slight modifications. Briefly, the protein was expressed in E. coli (DE3) at 16 °C with 0.5 mM IPTG induction overnight. Then, the protein was purified by Ni affinity and gel filtration chromatography. The p85α WT and p85α mutant sequences were chemically synthesized and subcloned into BamHI-XhoI sites of a pGEX-6P-1 plasmid by GenScript (Nanjing, China). The E. coli (DE3) transformed with the plasmids were grown in LB medium at 37 °C. The culture medium was supplemented with 0.5 mM IPTG followed by incubation at 16 °C for 16–18 h. The proteins were purified by glutathione-affinity chromatography (Smart-Life Sciences, Changzhou, China) followed by gel filtration chromatography (Cytiva, MA, USA) using PBS. The protein extinction coefficient was calculated by ProtParam, and the protein concentration was determined by the ultraviolet spectrophotometry method.
# (§2) The 96-well plate was coated with bovine serum albumin (BSA) or purified NLRP6. HRP-conjugated PepC or HRP-conjugated Pep9 was incubated with BSA or NLRP6 for 1 h, and the unbound peptide was washed away. The HRP substrate was added, and the absorbance was detected at 450 nm. For the competitive ELISA, the 96-well plate was coated with purified p85α. The binding of NLRP6 to p85α competed with 10 μM PepC or 5 μM, 10 μM, 20 μM Pep9 for 1 h.
# [1] = tested on: bovine serum albumin (BSA); assay: ELISA, binding of HRP-conjugated peptide to BSA (control); conditions: HRP-conjugated peptide on BSA, 1 h, absorbance 450 nm
# Procedure: as §2
# NLRP6/p85α interaction = assay: Competitive ELISA, NLRP6 binding to p85α; assay type: biochemical; conditions: 10 μM peptide (PepC +, Pep9 ++), 1 h
# Procedure: as §1, §2
# LN229 cells = assay: Cell proliferation / viability assay, LN229; assay type: cell-based, Human; conditions: TAT-peptide
# Procedure: (§3) Cells were seeded into 12-well plates at a density of 1 × 10^4 cells per well. Manual cell counting was carried out at the indicated times using trypan blue and a haemocytometer.
# (§4) To determine the antitumour effect of the peptide in vitro, the peptide was incubated with cells for 24 h when the cells were grown to approximately 80% confluence. Cell viability was measured at the indicated time points. The cell lysates were collected for immunoprecipitation as described above. To determine the antitumour effect of the peptide in vivo, the peptide was stereotactically injected using identical coordinates of tumour implantation in 3 μl of PBS. Briefly, 3 weeks after intracranial tumour cell implantation, mice with similar tumour sizes and similar weights were selected and randomly arranged into five groups (n = 6): PBS, PepC (0.25 mg/kg TAT-PepC per injection), Pep9 low dose (Pep9 L, 0.05 mg/kg TAT-Pep9 per injection), Pep9 medium dose (Pep9 M, 0.1 mg/kg TAT-Pep9 per injection), and Pep9 high dose (Pep9 H, 0.25 mg/kg TAT-Pep9 per injection). Each mouse received intratumoural injection every 10 days (at Day 21, Day 31, Day 41, and Day 51), and tumour growth was monitored at Day 21, Day 41, and Day 56. The experiment was terminated at Day 80, and all the mice (if they were alive) were sacrificed as previously described.
# U251 cells = assay: Cell proliferation / viability assay, U251 (PTEN deficient); assay type: cell-based, Human; conditions: Supplementary Figure 8i
# Procedure: as §3, §4
# p85α = assay: IHC of p85α in tumour tissues from peptide-treated mice; assay type: in vivo, nude mice with human tumour cells; conditions: PepC
# Procedure: In brief, the tissue sections were deparaffinized in xylene and 50–100% ethanol sequentially and then rehydrated in deionized water. The sections were immersed in Antigen Retrieval Solution in a pressure cooker and kept at 120 °C for 2.5 min. Endogenous peroxidase activity was blocked with peroxidase blocking reagent (3% hydrogen peroxide in water) for 15 min. The sections were incubated with primary antibodies in incubation buffer at 4 °C overnight. The sections were rinsed with wash buffer and incubated with secondary antibodies at room temperature for 1 h. Finally, the sections were immersed in DAB Chromogen Solution for suitable staining and counterstained with Haematoxylin QS for 3 min. The protein score was calculated by multiplying the percentage of positive cells (<10% = 0, 10–25% = 1, 25–50% = 2, 50–75% = 3, >75% = 4) by the intensity (negative = 0, weak staining = 1, moderate staining = 2, or strong staining = 3). The stained sections were evaluated by two independent pathologists who were blinded to the clinical characteristics.
# as §4
sequence,measurement,setting,value
"SAEGYQYRALYD [Pep1, peptide found on the p85α SH3 domain; selected as the control named PepC]",ELISA value,purified NLRP6; replicate 1,0.12
same,ELISA value,purified NLRP6; replicate 2,0.10
same,ELISA value,purified NLRP6; replicate 3,0.06
same,ELISA value,[1]; replicate 1,0.10
same,ELISA value,[1]; replicate 2,0.15
same,ELISA value,[1]; replicate 3,0.12
same,ELISA value (NLRP6 binding to p85α),"NLRP6/p85α interaction; replicate 1, no peptide 2.20",1.90
same,ELISA value (NLRP6 binding to p85α),"NLRP6/p85α interaction; replicate 2, no peptide 2.10",2.05
same,ELISA value (NLRP6 binding to p85α),"NLRP6/p85α interaction; replicate 3, no peptide 2.45",1.80
same,Relative cell viability,"LN229 cells; concentration 5 (unit not given), replicate 1",0.87
same,Relative cell viability,"LN229 cells; concentration 5 (unit not given), replicate 2",0.87
same,Relative cell viability,"LN229 cells; concentration 5 (unit not given), replicate 3",0.99
same,Relative cell viability,"LN229 cells; concentration 10 (unit not given), replicate 1",1.05
same,Relative cell viability,"LN229 cells; concentration 10 (unit not given), replicate 2",0.89
same,Relative cell viability,"LN229 cells; concentration 10 (unit not given), replicate 3",0.97
same,Relative cell viability,"LN229 cells; concentration 20 (unit not given), replicate 1",0.94
same,Relative cell viability,"LN229 cells; concentration 20 (unit not given), replicate 2",0.96
same,Relative cell viability,"LN229 cells; concentration 20 (unit not given), replicate 3",1.01
same,Relative cell viability,"LN229 cells; concentration 30 (unit not given), replicate 1",0.95
same,Relative cell viability,"LN229 cells; concentration 30 (unit not given), replicate 2",0.96
same,Relative cell viability,"LN229 cells; concentration 30 (unit not given), replicate 3",1.02
same,Relative cell viability,"U251 cells; 5 μM, replicate 1",1.01
same,Relative cell viability,"U251 cells; 5 μM, replicate 2",1.04
same,Relative cell viability,"U251 cells; 5 μM, replicate 3",0.94
same,Relative cell viability,"U251 cells; 10 μM, replicate 1",0.88
same,Relative cell viability,"U251 cells; 10 μM, replicate 2",0.87
same,Relative cell viability,"U251 cells; 10 μM, replicate 3",0.79
same,Relative cell viability,"U251 cells; 20 μM, replicate 1",0.99
same,Relative cell viability,"U251 cells; 20 μM, replicate 2",1.04
same,Relative cell viability,"U251 cells; 20 μM, replicate 3",0.91
same,Relative cell viability,"U251 cells; 30 μM, replicate 1",1.05
same,Relative cell viability,"U251 cells; 30 μM, replicate 2",0.89
same,Relative cell viability,"U251 cells; 30 μM, replicate 3",0.98
same,score (Supplementary Figure 8k),p85α; replicate 1,2
same,score (Supplementary Figure 8k),p85α; replicate 2,1
same,score (Supplementary Figure 8k),p85α; replicate 3,1
same,score (Supplementary Figure 8k),p85α; replicate 4,3
same,score (Supplementary Figure 8k),p85α; replicate 5,1
